Like-named read-outs stand apart in the source and are kept apart here.
Columns and labels:
[1] = Human liver microsome stability; conditions: for half-life: Human Liver Microsome Stability T1/2, human liver microsomes
ACSS2 [2] = biological target: T1, ACSS2 (Homo sapiens, UniProt Q9NR19); experiment: SPR binding to immobilized ACSS2; conditions: mean; for koff / kon: 1:1 binding model
T1 construct: His-tag (N); His-tag (C); made in house; host or cells: E. coli BL21 (DE3) RIL
Description: Overproduction of ACSS2 was achieved using a prokaryotic expression system. […] The bacterial expressions were then spun down, the supernatant discarded, and the pellets resuspended in 50 mM Tris HCl pH8.0, 800 mM NaCl, 5 mM Imidazole, 2 mM MgCl2, 10% Glycerol, 0.1 mg/mL Lysozyme, 1 mM Protease inhibitor (PMSF). After the cells were lysed via sonication, the sample was subjected to ultracentrifugation, and the clarified lysate was applied to a 5 mL Talon cobalt resin affinity column (Clonetech Laboratories, Mountain View, CA). The bound protein was washed with 300 mL wash buffer 1 (20 mM Tris HCl pH8.0, 800 mM NaCl, 15 mM Imidazole, 5 mM MgCl2, 10% Glycerol, 0.1% CHAPS) and 300 mL wash buffer 2 (20 mM Tris HCl pH8.0, 400 mM NaCl, 18 mM Imidazole, 5 mM MgCl2, 10% Glycerol) prior elution with 20 mM Tris HCl pH8.0, 400 mM NaCl, 300 mM Imidazole, 2 mM MgCl2, 5% Glycerol. Eluted ACSS2 was then dialyzed overnight into 20 mM Tris HCl pH8.0, 150 mM NaCl, 5% Glycerol, concentrated and applied to a Superdex S-200 (16/600) using the same buffer without Glycerol. ACSS2 fractions were pooled, concentrated to 3 mg/mL, aliquoted, and stored at −80°C. hACSS1 was obtained from a commercial vendor (www.mybiosource.com).
All binding assays were performed on a ProteOn XPR36 SPR Protein Interaction Array System (Bio-Rad Laboratories, Hercules, CA, United States). The instrument temperature was set at 25°C for all kinetic analyses. ProteOn GLH sensor chips were preconditioned with two short pulses each (10 s) of 50 mM NaOH, 100 mM HCl, and 0.5% sodium […]. Then, the system was equilibrated with running buffer (1x PBS pH 7.4, 3% DMSO, and 0.005% polysorbate 20). The surface of a GLH sensor chip was activated with a 1:100 dilution of a 1:1 mixture of 1-ethyl-3-(3-dimethylaminopropyl) carbodiimide hydrochloride (0.2 M) and sulfo-N-hydroxysuccinimide (0.05 M). Immediately after chip activation, the human ACSS2 or hACSS1 proteins were prepared at a concentration of 10 μg/mL in 10 mM sodium acetate, pH 5.5, and injected across ligand flow channels for 5 min at a flow rate of 30 μL/min. Then, after unreacted protein had been washed out, excess active ester groups on the sensor surface were capped by a 5 min injection of 1M ethanolamine HCl (pH 8.0) at a flow rate of 5 μL/min. A reference surface was similarly created by immobilizing a nonspecific protein (IgG b12 anti-HIV-1 gp120; was obtained through the NIH AIDS Reagent Program, Division of AIDS, NIAID, NIH: Anti-HIV-1 gp120 Monoclonal (IgG1 b12) from Dr. Dennis Burton and Carlos Barbas) and was used as a background to correct nonspecific binding. […] Data were analyzed using the ProteOn Manager Software version 3.0 (Bio-Rad). The responses from the reference flow cell were subtracted to account for the nonspecific binding and injection artifacts. Experimental data were fitted to a simple 1:1 binding model. Experiments were performed in triplicate to detect kinetic and equilibrium dissociation constants (KD).

ACSS2 [3] = biological target: T1, ACSS2; experiment: Fluorescence polarization-based ACSS2 biochemical assay (ATP to AMP conversion); conditions: 100 nM ACSS2, triplicate, ± SD; read-out: IC50, inhibition of ATP to AMP conversion of ACSS2
Description: ACSS2 enzyme activity was measured using the TranScreener AMP^2/GMP^2 Assay Kit—FP Readout assay (BellBrook Labs). The assay was performed in white, opaque, 96-well plates. […] ACSS2 was used in assay buffer (30 mM HEPES, pH 7.4, 140 mM NaCl, 2 mM MgCl2, 5 mM sodium acetate, 2 mM DTT, 0.05% CHAPS). Substrate mix was added, followed by a 60-min incubation. Final substrate concentrations were 5 mM acetate, 50 μM ATP, and 5 μM CoA. After incubation, conjugated AMP antibody and AMP tracer were added according to the methods described by BellBrook Labs. After 30 min, the FP signal was measured using a Tecan Spark multimode microplate reader. In the analysis, data were normalized to represent the percentage inhibition of ATPase activity.

MDA-MB-231BR cells = experiment: Clonogenic survival assay; assay type: cell-based; conditions: 100 μM, 48 h treatment, 10 days growth
Description: Triple-negative brain trophic cells MDA-MB-231BR and 4T1BR cells were a kind gift from Dr. Patricia Steeg (Center for Cancer Research, National Cancer Institute) ([Achrol et al., 2019]). Both cell lines were cultured in DMEM supplemented with 10% fetal bovine serum (FBS), 5% 10,000 Units/mL Penicillin-10,000 μg/mL Streptomycin, and 5% 200 mM L-Glutamine. For crystal violet staining, 5 × 10^4 cells were plated and subjected to the treatments as described in the individual figures and then stained with 0.5% crystal violet prepared in a 1:1 methanol-water solution followed by PBS washes. ACSS2 inhibitors were dissolved in 100% ultra-pure DMSO.
To assess clonogenic survival, 1 × 10^5 cells were seeded into a 6-well plate until 70%–80% confluency and treated for 48 h with analogs at 100 uM (unless otherwise stated in the figure legend). After 48 h, cells were trypsinized and counted using hemocytomer, and 1 × 10^4 cells per treatment were plated into a 6-well plate with fresh culture medium and allowed to grow for 10 days. Following 10-day incubation, cells were washed twice with PBS, stained with crystal violet for 30 min, and washed with dH2O twice. Colonies >50mircons were counted. For crystal violet staining, 0.5% crystal violet was prepared in a 1:1 methanol-water solution.

FASN = experiment: Immunoblot of FASN protein levels; assay type: cell-based; conditions: MDA-MB-231BR cells, 24 h
Description: Immunoblotting protocols have been previously described. Briefly, cell lysates from one to five x 10^6 cells were prepared in radioimmune precipitation assay buffer (150 mM NaCl, 1% NP40, 0.5% DOC, 50 mM Tris HCL at pH 8, 0.1% SDS, 10% glycerol, 5 mM EDTA, 20 mM NaF, and 1 mM Na3VO4) supplemented with 1 μg/mL each of pepstatin, leupeptin, aprotinin, and 200 μg/mL PMSF. Lysates were cleared by centrifugation at 16,000 x g for 15 min at 4°C and analyzed by SDS-PAGE and autoradiography with chemiluminescence. Proteins were analyzed by immunoblotting using primary antibodies indicated above.

MDR1 (P-gp) = experiment: Bi-directional permeability across MDR1-MDCK cell monolayer (BBB assay); assay type: in vitro ADME, canine; conditions: dog; MDR1-MDCK I monolayer, A to B
Description: This assay provides the apparent permeability coefficient (Papp), efflux ratio, and % recovery to assess compound permeation.

[4] = 25°C, Langmuir isotherm equilibrium fit, n=3, read-out: KD equilibrium
[5] = global fit, n=3, read-out: KD kinetic/global

T1 sequence (Q9NR19 whole entry): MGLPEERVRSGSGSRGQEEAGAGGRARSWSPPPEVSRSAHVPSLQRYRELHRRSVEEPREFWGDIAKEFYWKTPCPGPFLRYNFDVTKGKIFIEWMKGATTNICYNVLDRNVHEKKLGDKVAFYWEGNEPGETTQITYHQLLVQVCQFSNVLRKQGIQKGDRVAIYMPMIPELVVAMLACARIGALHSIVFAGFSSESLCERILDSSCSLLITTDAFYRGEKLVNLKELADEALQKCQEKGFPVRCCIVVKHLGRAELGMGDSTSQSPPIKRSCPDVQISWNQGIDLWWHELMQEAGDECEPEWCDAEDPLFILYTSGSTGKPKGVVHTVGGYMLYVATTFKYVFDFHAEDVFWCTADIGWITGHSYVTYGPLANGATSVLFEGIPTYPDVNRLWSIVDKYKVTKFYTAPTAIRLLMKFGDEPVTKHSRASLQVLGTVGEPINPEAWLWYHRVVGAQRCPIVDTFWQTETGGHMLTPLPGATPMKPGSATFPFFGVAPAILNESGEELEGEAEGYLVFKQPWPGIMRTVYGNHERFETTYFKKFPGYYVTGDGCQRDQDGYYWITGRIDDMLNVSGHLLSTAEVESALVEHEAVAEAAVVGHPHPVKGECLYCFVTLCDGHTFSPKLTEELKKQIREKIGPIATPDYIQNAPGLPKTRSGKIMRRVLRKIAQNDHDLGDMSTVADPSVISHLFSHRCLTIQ

## C[C@]12CC[C@H]3[C@@H](CCC4=CC(=O)CC[C@@]43C)[C@@H]1CC[C@@H]2O [Testosterone, reference compound]
[1]; human liver microsomes
  Remaining (T=60min): 0.06959
  Remaining (NCF=60min): 0.8976
[1]; human liver microsomes, scaled
  CLint(liver): 80.3781 mL/min/kg

## CN1CCC(O)(C(=O)NCCc2ccccc2Oc2ccccc2)CC1 [AD-7346]
ACSS2 [2]; n=3, read-out: koff
  koff: 0.399 s⁻¹
ACSS2 [2]; n=3, read-out: kon
  kon: 10100 M⁻¹ s⁻¹
ACSS2 [2]; [4]
  Kd: 39.8 µM
ACSS2 [2]; [5]
  Kd: 49.4 µM
ACSS2 [3]
  IC50: 2030 ± 210 nM

## COCCNC(=O)Nc1ccc2nc(-c3cccs3)c(-c3cccs3)nc2c1 [VY-3-249, reference compound]
ACSS2 [2]; n=3
  koff: 0.105 s⁻¹
  kon: 1800 M⁻¹ s⁻¹
ACSS2 [2]; [4]
  Kd: 53.2 µM
ACSS2 [2]; [5]
  Kd: 66 µM
ACSS2 [3]
  IC50: 1200 ± 490 nM
MDA-MB-231BR cells
  clonogenic survival: significantly reduce clonogenic survival
FASN
  protein levels of FASN: reduced protein levels of FASN

## O=C(CCN1CCCC(c2ccccc2)(c2ccccc2)C1)NC1CC1 [AD-2441]
MDA-MB-231BR cells
  clonogenic survival: significantly reduce clonogenic survival

## Cc1cccn2c(CC(=O)NCCC(c3ccccc3)c3ccco3)cnc12 (stereo not shown) [AD-3766]
ACSS2 [2]; n=3, read-out: koff
  koff: 0.359 s⁻¹
ACSS2 [2]; n=3, read-out: kon
  kon: 5010 M⁻¹ s⁻¹
ACSS2 [2]; [4]
  Kd: 70.6 µM
ACSS2 [2]; [5]
  Kd: 77.6 µM
MDA-MB-231BR cells
  clonogenic survival: significant reduction in clonogenic survival
[1]; human liver microsomes
  Remaining (T=60min): 0.0005
  Remaining (NCF=60min): 0.9639
[1]; human, liver microsomes
  CLint scaled: 1360 mL/min/kg
  Human Liver Microsome Stability T1/2: 0.9 min
  microsomal CLint: 1520 µL/min/mg
  half-life: 0.914 min

## O=C(O)Cc1ccccc1Nc1c(Cl)cccc1Cl [Diclofenac, reference compound]
[1]; human liver microsomes
  Remaining (T=60min): 0.00044
  Remaining (NCF=60min): 0.8763
[1]; human, liver microsomes
  CLint scaled: 236 mL/min/kg
  microsomal CLint: 262 µL/min/mg
  half-life: 5.29 min

## COCCc1ccc(OCC(O)CNC(C)C)cc1 (stereo not shown) [Metoprolol, reference compound]
MDR1 (P-gp)
  Papp A→B: 12.9 ×10⁻⁶ cm/s

## C[C@H](N)C(=O)N1CCCC(c2ccccc2)(c2ccccc2)C1 [AD-1363]
MDA-MB-231BR cells
  clonogenic survival: significant reduction in clonogenic survival

— publication PMC11137182, “Selective and brain-penetrant ACSS2 inhibitors target breast cancer brain metastatic cells” (Frontiers in Pharmacology, 2024)
